Data on six compounds can be found in US5886207A, “Optically active compound of flubrocythrinate, a process for preparing the same” (Shanghai Zhongxi Pharmaceutical Co. Ltd., priority 1994, dated 1999).

Format in all cases: in vivo
In one experiment the test system is wheat aphid. Nature of the experiment: Laboratory toxicity test against wheat aphid (Topic application method). The settings on record: for times as toxic as compound I against wheat aphid: relative to compound I, from Table 2; for LD50: third instar larva, topical 0.083 μl in acetone, 27° C., 48 hours. The method, then:
2. Laboratory toxicity test against wheat aphid (1) Method of manipulation (Topic application method) Weigh third instar larva on a swift electronic balance to obtain 8-18 mg/larva, and 0.083 μl of the insecticide solution in acetone at specified concentration with a microsyringe to the dorsal thorax of the larva, and then transfer the larva into a finger-type tube charged with artificial fodder, each tube for one larva, each concentration for 30 tubes, each insecticide run at 5 concentrations, and repeat 3 times. Place the tubes in a thermostat oven at 27° C. for 48 hours, and inspect the number of dead larva. Standard for death judgement: judge the wholly inflexible test aphid as death.

For experiment [1], the system named is tetranychus telarius Linnaeus and wheat aphid. Put plainly: Overall comparison of efficacy and dosage with compound I from Tables 1 and 2. The conditions noted are these: Tables 1 and 2, in words. The source says: (§1) Take the robust mature female mites, and paste the back of the mite on a piece of glass with a transparent adhesive tape. Every piece of glass pasted with 40 mites, and three pieces of glasses for each concentration, each insecticide repeated three times at five concentration. […] Immerse the above glasses in a insecticidal solution of specified concentration for 5 seconds and take out from the solution. Use a piece of absorbent paper to absorb the surplus insecticidal solution, transfer the above treated glasses to a culture dish previously fitted with a wetted cotton wool. The culture dish is kept in a thermostat oven at 28° C. for 48 hours, and inspect the number of dead mites under binocular dissecteined microscope. Standard for death judgement: use a needle to move the body of the mite, wholly inflexible judged as death.
Weigh third instar larva on a swift electronic balance to obtain 8-18 mg/larva, and 0.083 μl of the insecticide solution in acetone at specified concentration with a microsyringe to the dorsal thorax of the larva, and then transfer the larva into a finger-type tube charged with artificial fodder, each tube for one larva, each concentration for 30 tubes, each insecticide run at 5 concentrations, and repeat 3 times. Place the tubes in a thermostat oven at 27° C. for 48 hours, and inspect the number of dead larva. Standard for death judgement: judge the wholly inflexible test aphid as death.
The compound A and Ib are 2.11 times and 1.78 times as toxic as compound I against tetranychus telarius Linnaeus, and are 1.95 times and 1.88 times as toxic as compound I against wheat aphid respectively. Therefore compound Ia has the preferred effect, and the dosage needed is the lowest; the next one are A and compound Ib.

In experiment [2] the test system is tetranychus telarius Linnaeus. Nature of the experiment: Laboratory toxicity test against tetranychus telarius Linnaeus (Pasting Method). The settings on record: for LC50 / LC90: mature female mites, glass slide immersion 5 seconds, time 24 (hour); for times as toxic as compound I against tetranychus telarius Linnaeus: relative to compound I, from Table 1.
Description: 1. Laboratory toxicity test against tetranychus telarius Linnaeus
(1) Method of manipulation: (Pasting Method)
as §1, with “The culture dish is kept in a thermostat oven at 28° C. for 48 hours, and inspect the number of dead mites under binocular dissecteined microscope.” left out

Take `CC(C)[C@H](C(=O)O[C@H](C#N)c1cccc(Oc2ccc(Br)cc2)c1)c1ccc(OC(F)F)cc1` (relative stereo) [A]: in the experiment on wheat aphid, the “times as toxic as compound I against wheat aphid” value (shortened to “times … against wheat aphid”) worked out at 1.95 times and the LD50 came out at 0.0003712 μg/larva. Besides, in experiment [1], the “dosage compared with compound I” value is given as “lower than that of compound I” and the “efficacy compared with compound I” value is recorded as “apparently better than compound I”. Also, in experiment [2], the LC50 (usually the concentration that kills 50% of the test population) was 10 ppm, the LC90 was determined as 110 ppm and the “times as toxic as compound I against tetranychus telarius Linnaeus” value (shortened to “times … against tetranychus telarius Linnaeus”) is 2.11 times.

With `CC(C)[C@H](C(=O)O[C@H](C#N)c1cccc(Oc2ccc(Br)cc2)c1)c1ccc(OC(F)F)cc1` [Ia, (S)-α-Cyano-3-(4-bromophenoxy)benzyl-(S)-2-(4-difluoromethoxyphenyl)-3-methylbutyrate], in the experiment on wheat aphid, the “times … against wheat aphid” value is 4.06 times and the LD50 is 0.0001783 μg/larva. In experiment [1], the “dosage compared with compound I” value is recorded as “lower than that of compound I” and the “efficacy compared with compound I” value is “apparently better than compound I”. Further, in experiment [2], the LC50 is reported as 4 ppm, the LC90 is 52 ppm and the “times … against tetranychus telarius Linnaeus” value was found to be 4.46 times.

Consider `CC(C)[C@H](C(=O)O[C@@H](C#N)c1cccc(Oc2ccc(Br)cc2)c1)c1ccc(OC(F)F)cc1` [Ib, (R)-α-Cyano-3-(4-bromophenoxy)benzyl-(S)-2-(4-difluoromethoxyphenyl)-3-methylbutyrate], for which, in the experiment with wheat aphid, the “times … against wheat aphid” value worked out at 1.88 times and the LD50 is listed as 0.000385 μg/larva. In experiment [1], the “dosage compared with compound I” value is listed as “lower than that of compound I” and the “efficacy compared with compound I” value is listed as “apparently better than compound I”. Moreover, in experiment [2], the median lethal concentration (LC50) was found to be 12 ppm, the LC90 is 130 ppm and the “times … against tetranychus telarius Linnaeus” value was 1.78 times.

`CC(C)[C@@H](C(=O)O[C@H](C#N)c1cccc(Oc2ccc(Br)cc2)c1)c1ccc(OC(F)F)cc1` [Ic]: the LD50 with wheat aphid is listed as 0.009252 μg/larva. In experiment [2], this compound came in with an LC50 of 220 ppm and an LC90 of 2580 ppm.

Regarding `CC(C)[C@@H](C(=O)O[C@@H](C#N)c1cccc(Oc2ccc(Br)cc2)c1)c1ccc(OC(F)F)cc1` [Id, (R)-α-Cyano-3-(4-bromophenoxy)benzyl (R)-2-(4-difluoromethoxyphenyl)-3-methylbutyrate], in the experiment with wheat aphid, the LD50 was 0.05047 μg/larva. Also, in experiment [2], the median lethal concentration (LC50) is recorded as 1200 ppm and the LC90 stood at 8000 ppm.

Compound `CC(C)C(C(=O)OC(C#N)c1cccc(Oc2ccc(Br)cc2)c1)c1ccc(OC(F)F)cc1` (stereo not drawn) [compound I, α-cyano-3-(4-bromophenoxy) benzyl-2-(4-difluoromethoxyphenyl)-3-methylbutyrate, reference compound] yielded an LD50 in the experiment with wheat aphid of 0.0007247 μg/larva. In experiment [2], this compound came in with an LC50 of 19 ppm and an LC90 of 232 ppm.
